Source: patent US8907076B2, “Mycobacterial peptide deformylase” (Council of Scientific and Industrial Research, priority 2006, dated 2014)

Target: mPDF (Mycobacterium tuberculosis peptide deformylase) (Mycobacterium tuberculosis, UniProt P9WIJ3)
Settings: 500 mM, pre-incubation up to 2 h at 30° C., 70 ng protein/reaction
Procedure: The ability of mPDF to deformylate methionine was assessed in a spectrophotometric assay following the method described by Groche et al (Groche et al., Biochem. Biophys. Res. Commun. 246 342-346 1998) with slight modification. The assay was carried out in 50 μl reaction volume mPDF protein (usually 70 ng) in 1× assay buffer (100 mM phosphate buffer, pH 7.4 containing 100 μg/ml catalase) was incubated with the substrate (0 to 80 mM of N-formyl-Met-Ala, Sigma, USA) at 30° C. for 30 min. The reaction was terminated by addition of 50 μl of 4% HClO4 and further incubated (37° C. for 2 h) with TNBSA reagent (0.01% in 0.1M NaHCO3 buffer, pH 8.4). Following addition of 10% SDS (250 μl) and 1N HCl (125 μl), the highly chromogenic derivative generated due to reaction of primary amine with TNBSA was measured at 335 nm (Hermanson G, Bioconjugate techniques, Academic press, San Diego, Calif., 1996, pp, 112-113). The values obtained were corrected by subtracting the blank (all ingredients except mPDF enzyme) readings. Standard curves were prepared with known amounts (0-42.8 nmoles) of methionine.

Sequence of mPDF (Mycobacterium tuberculosis peptide deformylase) (P9WIJ3 whole entry): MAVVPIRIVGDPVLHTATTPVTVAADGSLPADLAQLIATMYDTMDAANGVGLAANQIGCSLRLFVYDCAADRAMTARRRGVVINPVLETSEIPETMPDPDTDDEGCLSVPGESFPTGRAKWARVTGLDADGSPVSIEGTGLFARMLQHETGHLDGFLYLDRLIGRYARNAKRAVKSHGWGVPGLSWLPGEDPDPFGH

## OO [H2O2, hydrogen peroxide]
  effect on the deformylating ability of mPDF compared to the untreated control: did not show any significant effect
